Key:
D2 receptors [1] = biological target: T1, D2 receptors (Homo sapiens, UniProt P14416); assay: BRET2 beta-arrestin-2 recruitment assay at D2; type: cell-based; set-up: expressed in transfected cells; host or cells: HEK-293T; settings: percent response of reference ligand dopamine; mean ± SEM
Procedure: BRET-2 signals were measured using the multiplate reader Mithras 940LB (Berthold Technologies, Bad Wildbad, Germany) and were calculated as the ratio between the Renilla luciferase emission and the GFP2 emission corrected by the background emissions of non-transfected cells.
Each curve is representative of two to three independent experiments.

habituated rats = assay: Locomotion in habituated rats, photocell activity boxes; settings: 5-35 minutes after injection; for locomotion in habituated rats: 6.25, 12.5, 50, 100, 200 and 400 μmol/kg sc, vs Control; for locomotion, accumulated unrepeated beam breaks, means±SEM of pooled groups: habituated rats, 50 μmol/kg sc, 30 minutes period, controls 23±6
Procedure: Rats were housed in a normal daylight cycle and the experiments were carried out during daytime. […] During the following 5 minutes test drugs were injected, after which the rats were returned to the boxes for another 60 minutes. Five by five rows of photocell beams at floor level allowed a computer based-system to register horizontal activity. Motor activity is presented as accumulated number of unrepeated beam breaks, i.e. several consecutive breakings of one beam is counted as one beam break. The software was set to register behavior from the rats' first introduction into the arena until it was finally removed from the box, i.e. for 110 or 130 minutes.
Locomotion was measured as accumulated unrepeated beam breaks. […] This was followed by 60 minutes of registration. Data are calculated from a 30 minutes period, 5-35 minutes after injection, and plotted as means and SEM. […] Data were calculated from a 30 minutes period, 5-35 minutes after injection.
The effect of haloperidol on the locomotor stimulation was also studied in habituated rats (see FIG. 10). Locomotion was measured as accumulated unrepeated beam breaks. Rats were given haloperidol (0.05, 0.2, 0.5 mg/kg, sc) and were then allowed to habituate for 65 minutes. […] Data are calculated from a 30 minutes period, taken 5-35 minutes after injection, and plotted as means and SEM. N=4-5.

human alpha2C receptor = biological target: T2, human alpha2C receptor (Homo sapiens, UniProt P18825); assay: R-SAT assay α2C; type: cell-based; settings: Table 3, α2C; percent response of reference UK 14,306
T2 construct: expressed in transfected cells; host or cells: NIH/3T3 cells, transient transfection, pSI vector
T2 sequence (P18825 1-462): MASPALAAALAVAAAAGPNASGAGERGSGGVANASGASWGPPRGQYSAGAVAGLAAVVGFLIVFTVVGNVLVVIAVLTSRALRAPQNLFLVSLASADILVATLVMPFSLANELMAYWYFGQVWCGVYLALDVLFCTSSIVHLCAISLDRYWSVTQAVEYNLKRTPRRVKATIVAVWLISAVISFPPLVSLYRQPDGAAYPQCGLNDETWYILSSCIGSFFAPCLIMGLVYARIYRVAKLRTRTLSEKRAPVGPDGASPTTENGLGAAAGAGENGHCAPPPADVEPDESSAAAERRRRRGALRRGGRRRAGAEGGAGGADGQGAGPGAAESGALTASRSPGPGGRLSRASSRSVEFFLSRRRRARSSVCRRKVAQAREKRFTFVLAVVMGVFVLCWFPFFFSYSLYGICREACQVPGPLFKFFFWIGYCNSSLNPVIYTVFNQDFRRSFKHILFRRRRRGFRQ

[2] = biological target: human serotonin transporter (SERT) (Homo sapiens, UniProt P31645); settings: displacement of 3H-Imipramine
Chain of human serotonin transporter (SERT) (P31645 whole entry): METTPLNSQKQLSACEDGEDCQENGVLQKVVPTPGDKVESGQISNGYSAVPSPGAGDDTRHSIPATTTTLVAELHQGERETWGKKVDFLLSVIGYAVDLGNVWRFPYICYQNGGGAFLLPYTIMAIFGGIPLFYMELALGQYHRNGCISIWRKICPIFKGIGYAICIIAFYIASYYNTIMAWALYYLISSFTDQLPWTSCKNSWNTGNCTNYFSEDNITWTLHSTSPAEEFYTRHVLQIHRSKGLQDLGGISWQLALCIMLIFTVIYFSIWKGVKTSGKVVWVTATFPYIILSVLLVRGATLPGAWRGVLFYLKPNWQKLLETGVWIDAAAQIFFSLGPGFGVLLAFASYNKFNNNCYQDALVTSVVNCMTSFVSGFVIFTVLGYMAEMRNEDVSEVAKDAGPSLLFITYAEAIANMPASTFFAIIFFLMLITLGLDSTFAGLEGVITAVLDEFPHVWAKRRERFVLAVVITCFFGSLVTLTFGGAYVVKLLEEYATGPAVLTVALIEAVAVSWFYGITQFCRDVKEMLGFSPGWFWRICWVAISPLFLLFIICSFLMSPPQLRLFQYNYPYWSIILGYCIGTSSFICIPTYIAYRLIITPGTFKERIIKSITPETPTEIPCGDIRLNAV
Procedure: (§1) Cells were not centrifuged following cell scraping, but were collected directly into the ice-cold nitrogen cavitation chamber.
Membranes were prepared as described above. […] Binding reactions were terminated by filtration through UniFilter-96GF/B filters (from Perkin-Elmer, presoaked with 0.1% polyethylenimine for 1 h) with a Brandel 96-well harvester. Filters were washed with ice-cold wash buffer (50 mM Tris, 120 mM NaCl, pH7.4; 500 ml/plate) and then allowed to air-dry for 30 min. 50 μl MacrosScint-20 scintillation cocktail was added to each well, the plates were sealed, and then counted on a Top-Count (Packard).

D2 receptors [3] = biological target: T1, D2 receptors; assay: GTPγS binding assay at D2; type: biochemical; set-up: expressed in transfected cells
Procedure: as §1
50 μl/well Wheat-Germ Agglutinin SPA beads (Perkin Elmer, Shelton, Conn.) were added to the plates and the plates incubated for 1 hour. The plates were then centrifuged at 1,000×g for 10 minutes and read on a Top Count NXT (Perkin Elmer, Shelton, Conn.).
To relate the results observed in R-SAT™ to a more conventional assay system, these ligands were also tested for the ability to induce GTPγS binding through D2 receptors.

human 5-HT1A receptor = biological target: T3, human 5-HT1A receptor (Homo sapiens, UniProt P08908); assay: R-SAT assay 5-HT1A; type: cell-based; settings: Table 3, 5-HT1A; percent response of reference 8-OH-DPAT
T3 construct: expressed in transfected cells; host or cells: NIH/3T3
T3 sequence (P08908 whole entry): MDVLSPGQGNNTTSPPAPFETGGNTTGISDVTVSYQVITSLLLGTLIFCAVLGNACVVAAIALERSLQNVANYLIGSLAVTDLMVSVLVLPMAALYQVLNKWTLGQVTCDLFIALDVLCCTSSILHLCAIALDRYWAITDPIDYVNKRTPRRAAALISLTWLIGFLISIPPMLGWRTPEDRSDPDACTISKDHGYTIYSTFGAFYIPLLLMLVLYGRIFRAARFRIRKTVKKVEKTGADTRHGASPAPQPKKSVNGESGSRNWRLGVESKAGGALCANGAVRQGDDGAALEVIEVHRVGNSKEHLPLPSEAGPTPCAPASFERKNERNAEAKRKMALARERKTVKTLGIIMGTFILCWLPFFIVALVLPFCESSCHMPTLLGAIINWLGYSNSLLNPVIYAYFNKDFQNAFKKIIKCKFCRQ

human M2 receptor = biological target: T4, human M2 receptor (Homo sapiens, UniProt P08172); assay: R-SAT assay M2; type: cell-based; settings: Table 3, M2; percent response of reference Carbachol
T4 construct: expressed in transfected cells; host or cells: NIH/3T3
T4 sequence (P08172 1-466): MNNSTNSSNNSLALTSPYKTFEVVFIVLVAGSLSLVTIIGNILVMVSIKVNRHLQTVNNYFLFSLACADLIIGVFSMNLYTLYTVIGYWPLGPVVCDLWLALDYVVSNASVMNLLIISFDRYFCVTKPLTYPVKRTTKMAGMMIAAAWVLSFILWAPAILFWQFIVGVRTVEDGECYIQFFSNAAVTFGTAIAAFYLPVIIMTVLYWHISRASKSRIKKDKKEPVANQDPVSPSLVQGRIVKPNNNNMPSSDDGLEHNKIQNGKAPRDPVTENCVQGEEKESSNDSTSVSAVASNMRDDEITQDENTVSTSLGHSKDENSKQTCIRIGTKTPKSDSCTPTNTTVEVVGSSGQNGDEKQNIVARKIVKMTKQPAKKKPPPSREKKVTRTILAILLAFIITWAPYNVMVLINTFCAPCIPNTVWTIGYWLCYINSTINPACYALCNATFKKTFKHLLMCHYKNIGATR

active rats = assay: Motor activity in active rats, video tracking; type: in vivo; settings: 30, 60, 120 μmol/kg sc 30 minutes prior to recording
Procedure: Motor activity experiments in both active and habituated rats were performed on male Sprague-Dawley rats (Charles River, Germany) weighing 280-320 g. Prior to testing, rats were housed in groups of four or five in ventilated Macrolon type IV cages for approximately one week.
The rats were housed in reverse daylight cycle and all handling of the animals was performed in dim light. Test drugs were administered s.c. 30 minutes prior to registration of behavior. Single rats were introduced into rectangular arenas (l/w/h: 150×100×40 cm) illuminated indirectly by one infrared (IR) lamp (Neocom, South Korea). The rats' movements were recorded to digital (MPEG2) video files using an IR sensitive video camera (Panasonic WV-CPR480, lens: Panasonic LA-408C3) connected to a PC equipped with a MPEG-encoder (MVR1000SX, Canopus Co.).
Suspected outliers were evaluated one at the time with Grubbs' test for outliers (Grubbs F E (1969) Procedures for detecting outlying observations in samples. Technometrics 11(1):1-21).
The third series of experiments was performed in drug naive rats (FIG. 8). Rats were injected sc with saline (C, 0.9%) or either test drug 30 minutes prior to video recording. […] Behavior was registered under infrared light in rectangular arenas (150×100×40 cm) by video tracking. Motor activity is shown as velocity. Shown are means and SEM.

human 5-HT1F receptor = biological target: T5, human 5-HT1F receptor (Homo sapiens, UniProt P30939); assay: R-SAT assay 5-HT1F; type: cell-based; settings: Table 3, 5-HT1F; percent response of reference BRL 54443
T5 construct: expressed in transfected cells; host or cells: NIH/3T3
T5 sequence (P30939 1-366): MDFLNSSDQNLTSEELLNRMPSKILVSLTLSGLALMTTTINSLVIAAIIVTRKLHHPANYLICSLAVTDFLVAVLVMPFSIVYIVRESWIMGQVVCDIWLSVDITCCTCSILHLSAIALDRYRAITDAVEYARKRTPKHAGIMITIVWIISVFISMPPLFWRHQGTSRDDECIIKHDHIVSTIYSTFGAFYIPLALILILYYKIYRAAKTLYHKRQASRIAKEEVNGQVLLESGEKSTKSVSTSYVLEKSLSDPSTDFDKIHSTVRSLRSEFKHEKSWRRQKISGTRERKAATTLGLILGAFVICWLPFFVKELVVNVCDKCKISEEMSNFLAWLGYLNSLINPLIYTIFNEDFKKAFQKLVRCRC

[4] = tested on: reserpine-pretreated mice; assay: Motor activity in monoamine-depleted (reserpine-pretreated) mice, video tracking; settings: for motor activity (distance moved, DM 1.5): reserpine 10 mg/kg ip 20 h prior, test drug ip just prior to recording, first 30 minutes, vs reserpine only group
human 5-HT1B receptor = human 5-HT1B receptor (Homo sapiens, UniProt P28222); assay: R-SAT assay 5-HT1B; type: cell-based; settings: Table 3, 5-HT1B; for Eff (%): percent response of reference 5-CT
Chain of human 5-HT1B receptor (P28222 whole entry): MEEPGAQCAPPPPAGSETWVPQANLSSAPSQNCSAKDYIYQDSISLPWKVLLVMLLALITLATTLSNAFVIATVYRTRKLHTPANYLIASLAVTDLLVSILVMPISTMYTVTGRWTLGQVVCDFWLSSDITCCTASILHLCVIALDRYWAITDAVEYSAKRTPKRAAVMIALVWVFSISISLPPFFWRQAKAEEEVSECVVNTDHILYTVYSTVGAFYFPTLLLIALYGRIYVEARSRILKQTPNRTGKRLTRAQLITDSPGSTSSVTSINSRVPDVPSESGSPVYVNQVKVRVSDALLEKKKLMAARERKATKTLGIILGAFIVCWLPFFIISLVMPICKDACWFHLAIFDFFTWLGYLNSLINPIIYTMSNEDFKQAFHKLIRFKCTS

T1 sequence (P14416 1-414 isoform P14416-2): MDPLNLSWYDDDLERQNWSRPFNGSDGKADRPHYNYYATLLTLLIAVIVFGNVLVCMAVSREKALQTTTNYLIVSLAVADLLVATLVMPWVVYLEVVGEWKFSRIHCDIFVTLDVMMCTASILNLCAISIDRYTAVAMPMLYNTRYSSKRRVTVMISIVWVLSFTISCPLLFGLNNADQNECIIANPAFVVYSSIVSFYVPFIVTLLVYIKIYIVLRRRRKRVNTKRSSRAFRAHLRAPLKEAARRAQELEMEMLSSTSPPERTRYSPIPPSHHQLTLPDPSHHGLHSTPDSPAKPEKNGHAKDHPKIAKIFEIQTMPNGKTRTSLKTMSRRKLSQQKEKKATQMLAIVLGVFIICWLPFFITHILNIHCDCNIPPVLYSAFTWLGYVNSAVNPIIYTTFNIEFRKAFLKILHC

SMILES | BRET2 Eff % (D2 receptors [1]) [%] | locomotion in habituated rats (habituated rats) | locomotion, accumulated unrepeated beam breaks, means±SEM of pooled groups (habituated rats) [unrepeated beam breaks] | Eff (%) (human alpha2C receptor) | Inh % [2] [%] | Emax at 50 µM (D2 receptors [3]; read-out: GTPγS Eff %, response at 50 μM) [%] | Eff (%) (human 5-HT1A receptor) | Eff (%) (human M2 receptor) | motor activity (velocity) in active rats (active rats) | Eff (%) (human 5-HT1F receptor) | motor activity (distance moved, DM 1.5) [4] | effect on motor activity compared with the (−)-enantiomer ([4]; reserpine-pretreated mice, 250 μmol/kg ip, p<0.01) | Eff (%) (human 5-HT1B receptor) | EC50 (D2 receptors [3]; negative logarithm of EC50 in molar, HEK293T membranes, mean ± SEM, read-out: GTPγS pEC50 (converted)) [nM] | GTPγS Eff % (D2 receptors [3]; percent response of reference ligand dopamine, mean ± SEM) [%] | EC50 (human 5-HT1B receptor; negative logarithm of EC50 in molar, read-out: pEC50 (converted)) [nM]
CCCN1CCC[C@H](c2cccc(S(C)(=O)=O)c2)C1 [(+)-OSU6162, (3R)-3-[3-(methylsulfonyl)phenyl]-1-propylpiperidine] | 0 ± 0 | significant locomotor stimulation was observed for all doses but the two lowest | 95±12 | 13 | 38 | 36 | 24 | 22 | decreased motor activity in active rats | 22 | statistically significant increase in motor activity at 125, 250 and 500 μmol/kg, with a peak response at 250 μmol/kg | much larger effect on motor activity | 20 | – | – | –
CCCN1CCC[C@@H](c2cccc(S(C)(=O)=O)c2)C1 [(−)-OSU6162, (3S)-3-[3-(methylsulfonyl)phenyl]-1-propylpiperidine] | 0 ± 0 | significant locomotor stimulation was observed for all doses but the lowest | 129±11 | 6 | 26 | – | 14 | 9 | decreased motor activity in active rats | 30 | statistically significant increase in motor activity at 125 and 250 μmol/kg | – | 75 | 501 | 37 ± 9 | 2510

Source: US20130197032A1, “[…] COMPOUNDS FOR THE TREATMENT OF NEUROLOGICAL AND […] DISORDERS” (A. CARLSSON RESEARCH AB, priority 2010, published 2013)
